Values quoted from earlier work as cited in PMC6017357, “In Vitro Inhibitory Effects of Synthetic Cannabinoid EAM-2201 on Cytochrome P450 and UDP-Glucuronosyltransferase Enzyme Activities in Human Liver Microsomes” (Molecules : A Journal of Synthetic Chemistry and Natural …, 2018).
Where two headings read alike, the source gives them in different places.

What was measured:
CYP2C9 [1] = biological target: T1, CYP2C9 (Homo sapiens, UniProt P11712); set-up: CYP2C8, CYP2C9, CYP2C19 and CYP3A4 activities in ultrapooled human liver microsomes were evaluated; from tissue; host or cells: ultrapooled human liver microsomes; method as in PMID 18838506; details: typical CYP2C9 mechanism-based inhibitors; cited from earlier work
CYP2C9 [2] = biological target: T1, CYP2C9; details: read-out: Ki, CYP2C9-catalyzed diclofenac hydroxylation; mixed or competitive inhibition, human liver microsomes; cited from earlier work
CYP2C19 [3] = biological target: T2, CYP2C19 (Homo sapiens, UniProt P33261); details: human liver microsomes; cited from earlier work
CYP3A4 [4] = biological target: T3, CYP3A4 (Homo sapiens, UniProt P08684); details: read-out: Ki, CYP3A4 midazolam 1′-hydroxylation; competitive (AM-2201) and noncompetitive (MAM-2201) inhibition, human liver microsomes; cited from earlier work
UGT1A3 = biological target: T4, UGT1A3 (Homo sapiens, UniProt P35503); details: human liver microsomes, cited from earlier work; for Ki: read-out: Ki, UGT1A3-catalyzed chenodeoxycholic acid 24-acyl glucuronidation
T4 sequence (P35503 29-534): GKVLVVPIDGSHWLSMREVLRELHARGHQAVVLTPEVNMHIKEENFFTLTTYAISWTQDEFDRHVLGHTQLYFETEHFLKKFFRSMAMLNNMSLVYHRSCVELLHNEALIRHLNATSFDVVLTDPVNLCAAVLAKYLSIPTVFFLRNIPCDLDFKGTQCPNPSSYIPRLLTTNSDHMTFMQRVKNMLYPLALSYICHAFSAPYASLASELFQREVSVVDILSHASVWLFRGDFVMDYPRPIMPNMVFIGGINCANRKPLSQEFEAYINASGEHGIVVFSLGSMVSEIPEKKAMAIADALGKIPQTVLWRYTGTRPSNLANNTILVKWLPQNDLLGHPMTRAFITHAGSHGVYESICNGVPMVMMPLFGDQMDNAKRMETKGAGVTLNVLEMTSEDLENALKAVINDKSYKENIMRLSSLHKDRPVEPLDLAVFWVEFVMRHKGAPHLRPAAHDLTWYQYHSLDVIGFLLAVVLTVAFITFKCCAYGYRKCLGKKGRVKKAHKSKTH

[5] = human liver microsomes; cited from earlier work
CYP2C8 [6] = biological target: T5, CYP2C8 (Homo sapiens, UniProt P10632); details: cited from earlier work; for time-dependent inhibition of CYP2C8 activity: human liver microsomes
T5 sequence (P10632 1-490): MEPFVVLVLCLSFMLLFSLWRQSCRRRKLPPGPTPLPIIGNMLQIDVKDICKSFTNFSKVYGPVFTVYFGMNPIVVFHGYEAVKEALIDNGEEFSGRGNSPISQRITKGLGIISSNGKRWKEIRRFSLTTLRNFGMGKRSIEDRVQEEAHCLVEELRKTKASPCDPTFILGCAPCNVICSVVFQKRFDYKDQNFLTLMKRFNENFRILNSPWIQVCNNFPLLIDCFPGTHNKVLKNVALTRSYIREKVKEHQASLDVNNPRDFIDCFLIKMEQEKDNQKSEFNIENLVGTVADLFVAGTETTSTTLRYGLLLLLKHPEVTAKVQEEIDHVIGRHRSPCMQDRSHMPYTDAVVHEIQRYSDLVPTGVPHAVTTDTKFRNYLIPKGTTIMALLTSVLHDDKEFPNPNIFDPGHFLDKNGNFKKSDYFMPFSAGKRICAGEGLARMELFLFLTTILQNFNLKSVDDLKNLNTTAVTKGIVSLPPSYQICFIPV

CYP3A4 [7] = biological target: T3, CYP3A4; details: enzyme source not given; cited from earlier work
[8] = tested on: human recombinant CYP2C19; details: mixed-type inhibition, human recombinant CYP2C19 enzymes; read-out: Ki, [S]-mephenytoin hydroxylation activity; cited from earlier work
CYP2C8 [9] = biological target: T5, CYP2C8; set-up: CYP2C8, CYP2C9, CYP2C19 and CYP3A4 activities in ultrapooled human liver microsomes were evaluated; from tissue; host or cells: ultrapooled human liver microsomes; method as in PMID 15304522; details: typical CYP2C8 inhibitors; cited from earlier work
human recombinant CYP3A4 = details: competitive inhibition, human recombinant CYP3A4 enzymes; read-out: Ki, CYP3A4-catalyzed diltiazem N-demethylation; cited from earlier work
UGT1A9 = biological target: T6, UGT1A9 (Homo sapiens, UniProt O60656); set-up: method as in PMID 23230132; details: human liver and intestinal microsomes; cited from earlier work
T6 construct: ultrapooled human liver microsomes (0.2 mg/mL), 5 mM UDPGA; from tissue; host or cells: ultrapooled human liver microsomes
T6 sequence (O60656 26-530): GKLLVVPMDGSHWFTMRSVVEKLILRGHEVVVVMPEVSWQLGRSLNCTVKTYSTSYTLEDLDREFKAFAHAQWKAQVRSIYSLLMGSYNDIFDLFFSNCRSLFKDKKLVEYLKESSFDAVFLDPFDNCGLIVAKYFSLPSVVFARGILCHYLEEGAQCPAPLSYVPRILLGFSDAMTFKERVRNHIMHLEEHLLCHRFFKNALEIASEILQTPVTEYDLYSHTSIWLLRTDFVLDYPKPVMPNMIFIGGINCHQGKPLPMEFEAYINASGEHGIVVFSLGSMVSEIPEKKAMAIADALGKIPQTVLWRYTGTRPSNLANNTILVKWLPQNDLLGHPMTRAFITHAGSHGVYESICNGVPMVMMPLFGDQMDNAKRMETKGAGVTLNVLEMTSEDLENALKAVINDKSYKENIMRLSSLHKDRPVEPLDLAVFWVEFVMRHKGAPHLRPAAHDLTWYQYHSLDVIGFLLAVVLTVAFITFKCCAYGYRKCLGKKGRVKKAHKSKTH

UGT2B7 = biological target: T7, UGT2B7 (Homo sapiens, UniProt P16662); set-up: method as in PMID 23230132; details: human liver and intestinal microsomes; cited from earlier work
T7 construct: ultrapooled human liver microsomes (0.2 mg/mL), 5 mM UDPGA; from tissue; host or cells: ultrapooled human liver microsomes
T7 sequence (P16662 24-529): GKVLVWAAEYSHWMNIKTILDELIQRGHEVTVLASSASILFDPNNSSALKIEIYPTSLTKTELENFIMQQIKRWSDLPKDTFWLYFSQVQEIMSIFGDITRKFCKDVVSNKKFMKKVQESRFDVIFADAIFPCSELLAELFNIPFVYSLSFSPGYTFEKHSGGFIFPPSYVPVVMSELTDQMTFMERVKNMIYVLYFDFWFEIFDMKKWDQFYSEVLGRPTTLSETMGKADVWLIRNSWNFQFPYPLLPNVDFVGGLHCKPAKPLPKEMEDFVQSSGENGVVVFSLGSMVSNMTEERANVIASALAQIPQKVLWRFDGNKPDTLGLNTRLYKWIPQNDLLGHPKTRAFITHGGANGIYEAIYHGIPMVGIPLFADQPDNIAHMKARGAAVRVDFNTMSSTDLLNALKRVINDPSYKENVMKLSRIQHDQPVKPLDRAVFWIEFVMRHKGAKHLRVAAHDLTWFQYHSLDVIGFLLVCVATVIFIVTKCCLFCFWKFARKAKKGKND

CYP3A4 [10] = biological target: T3, CYP3A4; details: human liver microsomes, time-dependent inhibitors with reported clinical drug–drug interaction; cited from earlier work
CYP2C19 [11] = biological target: T2, CYP2C19; details: typical mechanism-based CYP2C19 inhibitors; cited from earlier work

T2 sequence (P33261 whole entry): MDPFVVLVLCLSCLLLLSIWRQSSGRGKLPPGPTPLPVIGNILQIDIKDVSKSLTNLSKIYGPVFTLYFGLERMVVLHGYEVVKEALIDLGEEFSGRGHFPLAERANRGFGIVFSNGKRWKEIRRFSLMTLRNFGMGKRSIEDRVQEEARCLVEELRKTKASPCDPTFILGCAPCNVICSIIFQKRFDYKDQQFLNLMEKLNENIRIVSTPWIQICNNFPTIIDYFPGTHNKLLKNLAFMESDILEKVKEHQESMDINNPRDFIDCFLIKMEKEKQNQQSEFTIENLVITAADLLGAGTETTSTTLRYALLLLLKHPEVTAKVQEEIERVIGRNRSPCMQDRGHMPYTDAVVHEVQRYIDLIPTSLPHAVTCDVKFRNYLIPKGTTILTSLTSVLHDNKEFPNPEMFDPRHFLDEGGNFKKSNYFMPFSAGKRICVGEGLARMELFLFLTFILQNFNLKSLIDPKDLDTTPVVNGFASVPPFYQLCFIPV
T3 sequence (P08684 whole entry): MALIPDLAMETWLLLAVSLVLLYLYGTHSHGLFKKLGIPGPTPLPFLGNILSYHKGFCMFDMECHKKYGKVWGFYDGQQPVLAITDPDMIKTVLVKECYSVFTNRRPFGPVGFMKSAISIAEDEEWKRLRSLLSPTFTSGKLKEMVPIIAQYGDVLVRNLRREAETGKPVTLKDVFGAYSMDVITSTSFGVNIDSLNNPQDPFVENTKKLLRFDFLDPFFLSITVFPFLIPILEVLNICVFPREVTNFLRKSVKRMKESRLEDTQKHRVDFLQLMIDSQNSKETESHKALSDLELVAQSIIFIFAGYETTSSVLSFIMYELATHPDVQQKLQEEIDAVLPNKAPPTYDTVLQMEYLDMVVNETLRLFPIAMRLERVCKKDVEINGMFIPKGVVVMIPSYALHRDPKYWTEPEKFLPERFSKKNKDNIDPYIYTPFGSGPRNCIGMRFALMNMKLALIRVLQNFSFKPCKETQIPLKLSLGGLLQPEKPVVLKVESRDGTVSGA
T1 sequence (P11712 whole entry): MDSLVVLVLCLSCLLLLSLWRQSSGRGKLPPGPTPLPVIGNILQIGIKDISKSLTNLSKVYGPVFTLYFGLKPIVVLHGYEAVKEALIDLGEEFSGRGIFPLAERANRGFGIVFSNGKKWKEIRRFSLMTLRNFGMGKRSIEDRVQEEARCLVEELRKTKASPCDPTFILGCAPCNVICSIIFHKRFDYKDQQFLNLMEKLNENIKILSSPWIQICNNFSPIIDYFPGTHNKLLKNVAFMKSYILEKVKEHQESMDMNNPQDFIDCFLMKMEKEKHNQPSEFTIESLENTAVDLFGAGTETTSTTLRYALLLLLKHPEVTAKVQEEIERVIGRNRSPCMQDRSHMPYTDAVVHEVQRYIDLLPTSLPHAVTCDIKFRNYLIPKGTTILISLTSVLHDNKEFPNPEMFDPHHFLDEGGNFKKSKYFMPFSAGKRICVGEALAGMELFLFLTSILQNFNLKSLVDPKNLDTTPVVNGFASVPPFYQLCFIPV

For `CC(C(=O)O)c1ccc(C(=O)c2cccs2)cc1` (racemic) [(±)-suprofen], the “inactivation efficiency (kinact/Ki), CYP2C9” value (CYP2C9 [1]) is listed as 18.3 M⁻¹ s⁻¹.
For `O=C(c1cccc2ccccc12)c1cn(CCCCCF)c2ccccc12` [AM-2201], the Ki (CYP2C9 [2]) is listed as 3.9 µM, the “inhibition of CYP2C19-catalyzed [S]-mephenytoin hydroxylation” value (CYP2C19 [3]) is listed as “did not inhibit” and the Ki (CYP3A4 [4]) is listed as 4 µM. For the same molecule, the Ki (UGT1A3) was 4.3 µM, the number of metabolites [5] was 19 metabolites and the “inactivation efficiency (kinact/Ki), CYP2C8” value (CYP2C8 [6]) was 430 M⁻¹ s⁻¹. The “time-dependent inhibition of CYP2C8 activity” value (CYP2C8 [6]) was “exhibited time-dependent inhibition”.
For `Cc1ccc(C(=O)c2cn(CCCCCF)c3ccccc23)c2ccccc12` [MAM-2201, (1-(5-fluoropentyl)-1H-indol-3-yl)(4-methyl-1-naphthalenyl)-methanone], the Ki (CYP2C9 [2]) is given as 5.6 µM, the “inhibition of CYP2C19-catalyzed [S]-mephenytoin hydroxylation” value (CYP2C19 [3]) is given as “did not inhibit” and the Ki (CYP3A4 [4]) is given as 5.4 µM. The Ki (UGT1A3) was 5 µM, the number of metabolites [5] was 19 metabolites and the “inactivation efficiency (kinact/Ki), CYP2C8” value (CYP2C8 [6]) was 1230 M⁻¹ s⁻¹. For the same molecule, the “time-dependent inhibition of CYP2C8 activity” value (CYP2C8 [6]) was “exhibited time-dependent inhibition”.
For `CCCCCc1cc(O)c2c(c1)OC(C)(C)[C@@H]1CCC(C)=C[C@@H]21` [THC, ∆9-tetrahydrocannabinol], the Ki (CYP2C9 [2]) is listed as 1.31 µM, the “inhibition of CYP3A4 activity” value (CYP3A4 [7]) is listed as “did not inhibit” and the Ki [8] is listed as 1.93 µM.
For `CCCCc1oc2ccccc2c1C(=O)c1cc(I)c(OCCN(CC)CC)c(I)c1` [amiodarone], the “inactivation efficiency (kinact/Ki), CYP2C8” value (CYP2C8 [9]) is given as 9.5 M⁻¹ s⁻¹.
In the case of `C=C(C)[C@@H]1CCC(C)=C[C@H]1c1c(O)cc(CCCCC)cc1O` [cannabidiol], the Ki (human recombinant CYP3A4) is given as 1 µM, the “inhibition of UGT1A9 activity” value (UGT1A9) is given as “inhibited” and the “inhibition of UGT2B7 activity” value (UGT2B7) is given as “inhibited”. The Ki [8] was 0.793 µM.
For `CCCCCc1cc(O)c2c(c1)OC(C)(C)c1ccc(C)cc1-2` [cannabinol], the “inhibition of UGT1A9 activity” value (UGT1A9) is given as “inhibited”, the “inhibition of UGT2B7 activity” value (UGT2B7) is given as “inhibited” and the “inhibition of CYP3A4 activity” value (CYP3A4 [7]) is given as “did not inhibit”.
In the case of `CC[C@H]1OC(=O)[C@H](C)[C@@H](O[C@H]2C[C@@](C)(OC)[C@@H](O)[C@H](C)O2)[C@H](C)[C@@H](O[C@@H]2O[C@H](C)C[C@H](N(C)C)[C@H]2O)[C@](C)(OC)C[C@@H](C)C(=O)[C@H](C)[C@@H](O)[C@]1(C)O` [clarithromycin], the “inactivation efficiency (kinact/Ki), CYP3A4” value (CYP3A4 [10]) is given as 46.7 M⁻¹ s⁻¹.
For `COC(=O)[C@H](c1ccccc1Cl)N1CCc2sccc2C1` [clopidogrel], the “inactivation efficiency (kinact/Ki), CYP2C19” value (CYP2C19 [11]) is given as 65 M⁻¹ s⁻¹.
For `CC1(C)[C@@H](O)CC[C@]2(C)[C@H]3C(=O)C=C4[C@@H]5C[C@@](C)(C(=O)O)CC[C@]5(C)CC[C@@]4(C)[C@]3(C)CC[C@@H]12` [glycyrrhetinic acid], the IC50 (UGT1A3; read-out: IC50, UGT1A3-catalyzed chenodeoxycholic acid 24-acyl glucuronidation, selective UGT1A3 inhibitor) is given as 4.3 µM.
For `NNCCc1ccccc1` [phenelzine], the “inactivation efficiency (kinact/Ki), CYP2C8” value (CYP2C8 [9]) is listed as 52.2 M⁻¹ s⁻¹.
For `O=C(O)COc1ccc(C(=O)c2cccs2)c(Cl)c1Cl` [tienilic acid], the “inactivation efficiency (kinact/Ki), CYP2C9” value (CYP2C9 [1]) is given as 142 M⁻¹ s⁻¹.
